Patent US6566554B1, “Aminobenzophenones as inhibitors of IL-1β and TNF-α” (Leo Pharmaceutical Products Ltd. a/s (Lovens Kemiske Fabrik …, priority 1999, dated 2003)

Experiments:
Assay type in all cases: cell-based
IL-1β secretion = assay: Inhibition of IL-1β secretion in LPS stimulated peripheral blood mononuclear cells; conditions: PBMC; LPS stimulated human peripheral blood mononuclear cells, 18 hours, ELISA; read-out: The median inhibition concentration (IC50, nM) of IL-1β
Description: (§1) To study the effect of the compound of the present invention in vitro the inhibition of the IL-1β and TNF-α secretion was measured using the following procedure:
(§2) Cytokine production was measured in the media from lipopolysaccharide (LPS) stimulated peripheral blood mononuclear cells. The mononuclear cells were isolated from human peripheral blood by Lymphoprep® (Nycomed, Norway) fractionation and suspended in RPMI 1640 (growth medium) with foetal calv serum (FCS, 2%), at a concentration of 5×10^5 cells/ml. The cells were incubated in 24-well tissue culture plates in 1 ml aliquots. Test compounds were dissolved in dimethylsulfoxide (DMSO, 10 mM) and were diluted with the medium. Compounds were added to the cells for 30 minutes, then LPS ([…] final concentration) was added. The plates were incubated for 18 hours, and the concentration of IL-1β and TNF-α in the medium was determined by enzyme-linked immunosorbent assays. The median inhibitory concentrations (IC50) of the compounds were calculated.

[1] = test system: Human polymorphonuclear (PMN) granulocytes; assay: Inhibition of PMN superoxide secretion (ferricytochrome C reduction, TNF-α primed, fMLP stimulated); conditions: fMLP 10^−7 M, read-out: The median inhibition concentration (IC50, nM) of PMN-superoxide
Description: The compounds of the present invention also show similar activities in the ability to inhibit PMN (polymorphonuclear) superoxide secretion which is also indicative of potentially useful anti-inflammatory drugs. The compounds were tested using the following procedure. Human polymorphonuclear (PMN) granulocytes were isolated from human blood by dextran sedimentation, Lymphoprep® fractionation, and hypotonic lysis of contaminating erythrocytes. Superoxide anion generation was measured as the superoxide dismutase inhabitable reduction of ferricytochrome C (Madhu, S. B. et al, Inflammation, 16, 241, (1992)). The cells were suspended in Hank's balanced salt solution, and incubated for 10 minutes at 37° C. with test compounds. The cells were primed by the addition of TNF-α (3 ng/ml final concentration) for 10 minutes, and then ferricytochrome C, (final concentration 750 μg/ml), bovine serum albumin (BSA, final concentration 1 mg/ml) and formyl-methionyl-leucyl-phenylalanine (fMLP, final concentration 10^−7 M) were added for 3 minutes. The cells were chilled on ice, and were spun down. The optical densities in the cell-free supernatant was measured in a spectrophotometer. The median inhibitory concentration (IC50) of the compounds was calculated.

TNF-α secretion = assay: Inhibition of TNF-α secretion in LPS stimulated peripheral blood mononuclear cells; conditions: PBMC; LPS stimulated human peripheral blood mononuclear cells, 18 hours, ELISA; read-out: The median inhibition concentration (IC50, nM) of TNF-α
Description: as §1, §2

## Cc1ccccc1C(=O)c1ccc(Nc2ccccc2NC(=O)CCC(=O)O)cc1Cl [Compound 101, N-[2-[3-Chloro-4-(2-methylbenzoyl)-phenylamino]phenyl]-succinamic Acid]
IL-1β secretion
  IC50: 200 nM
[1]
  IC50: 63 nM
TNF-α secretion
  IC50: 25 nM

## CCCCCCCC(=O)Nc1ccccc1Nc1ccc(C(=O)c2ccccc2C)c(Cl)c1 [Compound 102, 2′-[3-Chloro-4-(2-methylbenzoyl)-phenylamino]octananilide]
IL-1β secretion
  IC50: 6.3 nM
[1]
  IC50: 5 nM
TNF-α secretion
  IC50: 6.3 nM
